Test systems include OVCAR-8 ovarian; TK-10 renal; HCT-116 colon; HCT-15 colon; SNB-75 CNS; UACC-257 melanoma; HCC-2998 colon; HOP-92 NSCLC; K-562 leukemia; COLO 205 colon.
What all share (assay): DTP human tumour cell line panel, 48 h

“And” between values parts separate entries of the source, which are not always exact repeats. Identical values can stand only once.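 Step 1: Grow cells in 96-well plates. Step 2: Expose to compound for 48 hours at 5 concentrations. Step 3: Interpolate endpoints linearly; if unreached, use highest concentration. The concentration for 50% growth inhibition is given as GI50. TGI denotes the concentration required for complete inhibition of growth.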

The TGI is the concentration giving total growth inhibition. Read a high TGI as less potent growth arrest. Turning to `COc1ccc(N2C(=O)CC(Cl)C2=O)cc1` (stereo not given), the TGI in the experiment with OVCAR-8 ovarian is 30.2 µM; with TK-10 renal it was 32.9 µM; with HCT-116 colon, 32.2 µM; in the experiment on HCT-15 colon it was 33.2 µM; in the experiment on SNB-75 CNS, greater than 100 µM; in the experiment on UACC-257 melanoma, 29.7 µM. Besides, the TGI in the experiment on HCC-2998 colon was 50.6 µM; in the experiment on HOP-92 NSCLC, 73.7 µM; with K-562 leukemia, 17.5 µM; in the experiment with COLO 205 colon, 30 µM.

One may read the GI50 as the concentration at which growth is held to half of that of the control. In the case of `Cc1ccccc1NC(=O)N/C(N)=N/c1nc(-c2cccc([N+](=O)[O-])c2)cs1`, the GI50 is 2880 nM with OVCAR-8 ovarian; 5.33 µM in the experiment on TK-10 renal; 1580 nM in the experiment with HCT-116 colon; 1.56 µM in the experiment with HCT-15 colon; 1.28 µM in the experiment with SNB-75 CNS; 4.85 µM in the experiment on UACC-257 melanoma. Moreover, the GI50 in the experiment on HCC-2998 colon is 3.16 µM; in the experiment on HOP-92 NSCLC, 2150 nM; with K-562 leukemia, 555 nM; in the experiment on COLO 205 colon it was 3.89 µM. Besides, the concentration for total growth inhibition (TGI) is 15.2 µM in the experiment on OVCAR-8 ovarian; 14.6 µM in the experiment with TK-10 renal; 3.18 µM with HCT-116 colon; 34.6 µM with HCT-15 colon; 3.62 µM with SNB-75 CNS; greater than 100 µM in the experiment on UACC-257 melanoma. For the same compound, the TGI in the experiment with HCC-2998 colon was greater than 100 µM; with HOP-92 NSCLC, 6.6 µM; in the experiment on K-562 leukemia it was greater than 100 µM; with COLO 205 colon, greater than 100 µM.

As for `CCN(CC)CC(O)CNc1ccc(NCC2CO2)c2c1C(=O)c1ccccc1C2=O` (stereo not given), the TGI with OVCAR-8 ovarian came out at 1.32 µM; in the experiment on TK-10 renal it was 7.15 µM; with HCT-116 colon it was 1.11 µM; with HCT-15 colon it was 6.35 µM; with SNB-75 CNS it was 4.29 µM; with UACC-257 melanoma, 4.04 µM. Further, the concentration for total growth inhibition (TGI) in the experiment on HCC-2998 colon is 2.77 µM; in the experiment on HOP-92 NSCLC, 6.39 µM; with COLO 205 colon, 4.38 µM. The 50% growth inhibitory concentration (GI50) is 86.6 nM in the experiment on HCT-116 colon; 0.417 µM in the experiment on HCT-15 colon; 0.587 µM in the experiment on HCC-2998 colon; 13.5 nM with K-562 leukemia; 0.581 µM in the experiment with COLO 205 colon.

On to `O=C1Nc2ccc(C(=O)c3ccco3)cc2/C1=C/c1cc(Cl)c(O)c(Cl)c1`, for which the GI50 was 6270 nM with OVCAR-8 ovarian; 6.53 µM with TK-10 renal; 1870 nM in the experiment with HCT-116 colon; 4.16 µM with HCT-15 colon; 6.16 µM in the experiment on SNB-75 CNS; 4.79 µM with UACC-257 melanoma. The GI50 with HCC-2998 colon was 6.07 µM; with HOP-92 NSCLC, 3200 nM; in the experiment on K-562 leukemia, 9050 nM; in the experiment with COLO 205 colon, 8.01 µM. Moreover, the TGI in the experiment with OVCAR-8 ovarian was greater than 25 µM; with TK-10 renal, greater than 23.9 µM; in the experiment with HCT-116 colon, greater than 25 µM; in the experiment with HCT-15 colon it was greater than 25 µM; in the experiment with SNB-75 CNS it was greater than 25 µM; in the experiment on UACC-257 melanoma, 17.9 µM. Moreover, the TGI was 17.7 µM in the experiment on HCC-2998 colon, 14.4 µM in the experiment on HOP-92 NSCLC, greater than 25 µM with K-562 leukemia and greater than 25 µM with COLO 205 colon.

Turning to `Cc1cc(I)cc(CN(C)CCCN2CCSCC2)c1O`, the GI50 was 34800 nM with OVCAR-8 ovarian; 33.3 µM in the experiment with TK-10 renal; 13300 nM with HCT-116 colon; 17.8 µM with HCT-15 colon; 30.6 µM in the experiment with SNB-75 CNS; 26.4 µM in the experiment with UACC-257 melanoma. Besides, the GI50 with HCC-2998 colon was 17.5 µM; in the experiment on HOP-92 NSCLC it was 14600 nM; in the experiment on K-562 leukemia it was 14200 nM; in the experiment with COLO 205 colon it was 25.2 µM. The concentration for total growth inhibition (TGI) is greater than 100 µM with OVCAR-8 ovarian; 89.3 µM with TK-10 renal; 30.8 µM in the experiment with HCT-116 colon; 37.2 µM in the experiment on HCT-15 colon; greater than 100 µM with SNB-75 CNS; 92.1 µM in the experiment with UACC-257 melanoma. Moreover, the TGI in the experiment on HCC-2998 colon was determined as 32.5 µM; in the experiment on HOP-92 NSCLC it was 47.4 µM; with K-562 leukemia it was 32.6 µM; with COLO 205 colon it was 55.3 µM.

Take `CCC(Sc1cc(Cl)c(C)cc1S(=O)(=O)Nc1nc(N)nc(N(C)C)n1)C(=O)O` (stereo not given): the TGI with OVCAR-8 ovarian, in the experiment with TK-10 renal, in the experiment on HCT-116 colon, in the experiment on HCT-15 colon, with SNB-75 CNS and in the experiment with UACC-257 melanoma was greater than 10 µM throughout. Also, the TGI in the experiment on HCC-2998 colon, in the experiment with HOP-92 NSCLC, in the experiment on K-562 leukemia and with COLO 205 colon was greater than 10 µM in each case.

Take `COc1cc(OC)cc(C2CC(=O)Nc3c2c(C)nn3-c2nc3ccccc3[nH]2)c1` (stereo not given): the GI50 is 3970 nM with OVCAR-8 ovarian; 3.04 µM in the experiment with TK-10 renal; 1970 nM in the experiment with HCT-116 colon; 3.73 µM in the experiment on HCT-15 colon; 3.47 µM with SNB-75 CNS; 2.64 µM in the experiment on UACC-257 melanoma. Further, the GI50 in the experiment with HCC-2998 colon was 3.7 µM; in the experiment on HOP-92 NSCLC, 2590 nM; in the experiment with K-562 leukemia, 3150 nM; with COLO 205 colon, 2.7 µM. The concentration for total growth inhibition (TGI) with OVCAR-8 ovarian was greater than 100 µM; with TK-10 renal it was 45.5 µM; in the experiment on HCT-116 colon, 4.16 µM; in the experiment on HCT-15 colon, greater than 100 µM; with SNB-75 CNS it was 9.65 µM; in the experiment on UACC-257 melanoma, 7.32 µM. Further, the TGI in the experiment with HCC-2998 colon was 56.5 µM; in the experiment with HOP-92 NSCLC, 6.63 µM; in the experiment on K-562 leukemia, greater than 100 µM; with COLO 205 colon it was 6.55 µM.

Take `CCOC(=O)Nc1nc2ccc(Cn3cccc3)cc2[nH]1`: the TGI is greater than 100 µM in the experiment with OVCAR-8 ovarian; greater than 100 µM with TK-10 renal; greater than 100 µM in the experiment with HCT-116 colon; greater than 100 µM with HCT-15 colon; 2.11 µM with SNB-75 CNS; 26.2 µM in the experiment on UACC-257 melanoma. The TGI with HCC-2998 colon is greater than 26.5 µM; with HOP-92 NSCLC, greater than 100 µM; in the experiment with K-562 leukemia it was greater than 100 µM; with COLO 205 colon it was 17.7 µM.

As for `CC1=C2[C@@H](CC1)[C@]1(C)O[C@@](C3CCCCC3)(C[C@H]1OC(=O)CO)[C@H]2OC(=O)/C=C/c1ccccc1`, the GI50 with OVCAR-8 ovarian was 110 nM; with TK-10 renal, 12.3 µM; in the experiment on HCT-116 colon it was 7120 nM; with HCT-15 colon it was 5.23 µM; with SNB-75 CNS it was 7.94 µM; with UACC-257 melanoma it was 12.3 µM. For the same compound, the GI50 in the experiment on HCC-2998 colon was 6.3 µM; in the experiment with HOP-92 NSCLC, 3680 nM; in the experiment on K-562 leukemia, 7140 nM; in the experiment with COLO 205 colon, 8.06 µM. The TGI stood at 12.9 µM with OVCAR-8 ovarian; 26.5 µM in the experiment on TK-10 renal; 21.1 µM in the experiment with HCT-116 colon; 15.7 µM in the experiment on HCT-15 colon; 34.8 µM in the experiment with SNB-75 CNS; 26 µM with UACC-257 melanoma. The TGI came out at 18.4 µM in the experiment with HCC-2998 colon, 12.2 µM with HOP-92 NSCLC, 32.1 µM in the experiment on K-562 leukemia and 24.3 µM with COLO 205 colon.

As to `CO[C@@H]1/C=C\C=C(/C)C(=O)NC2=CC(=O)C(NCCN(C)C)=C(C[C@@H](C)C[C@@H](OC)[C@@H](O)[C@H](C)/C=C(\C)[C@H]1OC(N)=O)C2=O`, the concentration for 50% growth inhibition (GI50) with OVCAR-8 ovarian was 21.6 nM; in the experiment on HCT-116 colon it was 19.2 nM; in the experiment with SNB-75 CNS, less than 0.0235 µM; in the experiment with UACC-257 melanoma it was 0.0196 µM; with HCC-2998 colon, 0.0197 µM; with HOP-92 NSCLC it was 966 nM and 175 nM. For the same compound, the GI50 in the experiment with K-562 leukemia was 15.8 nM. The concentration for total growth inhibition (TGI) was 2.95 µM and 6.36 µM in the experiment with OVCAR-8 ovarian; 24 µM and 34.7 µM in the experiment on TK-10 renal; 1.52 µM and 2.3 µM with HCT-116 colon; 4.06 µM and 10.9 µM in the experiment on HCT-15 colon; 0.977 µM and 6.15 µM in the experiment on SNB-75 CNS; 2.06 µM and 1.27 µM in the experiment with UACC-257 melanoma. The total growth inhibition concentration (TGI) with HOP-92 NSCLC is 11.7 µM and 2.1 µM; in the experiment on K-562 leukemia, 3.22 µM and 13.6 µM; in the experiment on COLO 205 colon, 0.171 µM.

Turning to `CCN(CC)CCC(=O)NC1c2ccc(Cl)cc2Oc2c(C)cccc21` (stereo not given), the TGI in the experiment on OVCAR-8 ovarian was determined as 31.4 µM; in the experiment with TK-10 renal it was 27.9 µM; in the experiment on HCT-116 colon, 30.2 µM; with HCT-15 colon it was 34.6 µM; with SNB-75 CNS it was 22.5 µM; in the experiment with UACC-257 melanoma, 31.6 µM. Moreover, the TGI was 39 µM with HCC-2998 colon, 40.8 µM with HOP-92 NSCLC, 40.7 µM in the experiment with K-562 leukemia and 40.1 µM in the experiment with COLO 205 colon.

With `C=CC1(C(=O)O)CCC(C(C)(C)C)CC1` (stereo not given), the TGI in the experiment with OVCAR-8 ovarian, in the experiment on TK-10 renal, in the experiment with HCT-116 colon, in the experiment with HCT-15 colon, in the experiment with SNB-75 CNS and with UACC-257 melanoma was greater than 100 µM throughout. The total growth inhibition concentration (TGI) in the experiment with HCC-2998 colon, with HOP-92 NSCLC, in the experiment on K-562 leukemia and in the experiment on COLO 205 colon was greater than 100 µM throughout.

Turning to `O=C1c2ccccc2-c2c1c1ccccc1c(=O)n2CCCNCCCn1ccnc1`, the GI50 is 2440 nM with OVCAR-8 ovarian; 1.89 µM in the experiment on TK-10 renal; 598 nM with HCT-116 colon; 0.44 µM with HCT-15 colon; 2.61 µM in the experiment with SNB-75 CNS; 4.62 µM in the experiment on UACC-257 melanoma. In addition, the GI50 in the experiment with HCC-2998 colon was 0.894 µM; with HOP-92 NSCLC, 950 nM; with K-562 leukemia, 529 nM; in the experiment with COLO 205 colon, 2.13 µM. In addition, the TGI with OVCAR-8 ovarian is greater than 37.3 µM; in the experiment with TK-10 renal it was 9.73 µM; in the experiment with HCT-116 colon, 2.01 µM; in the experiment on HCT-15 colon it was 10.1 µM; in the experiment with SNB-75 CNS, 9.84 µM; in the experiment on UACC-257 melanoma, 23.1 µM. For the same compound, the total growth inhibition concentration (TGI) was 2.38 µM with HCC-2998 colon, 7.57 µM in the experiment on HOP-92 NSCLC, 2.65 µM with K-562 leukemia and 13.2 µM in the experiment with COLO 205 colon.

These data come from PubChem BioAssay (NCI).
